In US11771699B2, “Combined treatment with a TLR7 agonist and an HBV capsid assembly inhibitor” (Hoffmann-La Roche Inc., priority 2015, dated 2023):
Like-named read-outs stand apart in the source and are kept apart here.

What was measured:
HBV (AAV-HBV) = type: in vivo, C57BL/6 mice; conditions: for reduction in HBV DNA: Compound 2 12 mg/kg QD; for effect on HBV DNA: Example 7, FIG. 4-6; for effect on HBV DNA / effect on HBsAg: single treatment, 6 weeks PO, Compound 5 12 mg/kg QD; for effect on HBsAg: Example 7, FIG. 5-6
Text: 4-week old male C57BL/6 mice, specific pathogen free, were purchased from Shanghai Laboratory Animal Center of Chinese Academy of Sciences (SLAC) and housed in an animal care facility in individually ventilated cages under controlled temperature and light conditions following the Institutional Animal Care guidelines. AAV/HBV virus was purchased from Beijing FivePlus Molecular Medicine Institute (Beijing, China). This recombinant virus carries 1.3 copies of the HBV genome, which was packaged in AAV serotype 8 (AAV8) capsids. C57BL/6 mice were injected with […], of recombinant virus, diluted in saline buffer, through tail vein injection. The mice were bled at days 7 and 14 post injection to monitor HBV surface antigen (HBsAg), HBV e antigen (HBeAg), HBs antibody (HBsAb) and HBV genomic DNA in serum, and then were randomly grouped according to these HBV biomarkers.
Measurement of HBV Biomarkers
Serum HBsAg and HBeAg was measured using CLIA kits (Autobio Diagnostics Co., Ltd, Zhengzhou, China) according to the manufacturer's instructions. The lower limit of detection for HBsAg and HBeAg was 0.1 ng/mL and 0.25 NCU/mL (national clinical unit/mL) respectively. Serum dilution of 100-fold (for HBsAg) or 500-fold (for HBeAg) was used to obtain values within the linear range of the standard curve. Serum HBV DNA was extracted using a MagNA Pure 96 DNA and Viral NA Small Volume Kit (Roche) following the manufacturer's instructions. The DNA samples were analyzed by real-time quantitative PCR (qPCR) using a HBV-specific primer and probe set for specific amplification and detection of a 128 bp HBV genome region from the nucleotide 2969 to 3096. The sequences of the primers and probe are shown as follows: […]
Anti-HBs in the serum was measured on day 24 after the treatment ended using Anti-HBs CLIA kits (Autobio Diagnostics Co., Ltd, Zhengzhou, China) following the manufacturer's instructions. The serum samples were 3-fold diluted and 50 μL of the diluted samples were used for the assay.
10 mg/mL of Compound 1 and 1.2 mg/mL of Compound 2 was formulated as an inclusion complex with 2% Klucel LF, 0.1% Polysorbate 80, and 0.1% Parabens in water. All the mice were orally dosed for a total of 6 weeks followed by a 2-week off-treatment period. In one single-treatment control study, the five mice of the group Compound 1 were treated with Compound 1 at 100 mg/kg every other day (QOD). The vehicle group was treated with an equivalent volume of oral-QD vehicle placebo (2% Klucel LF, 0.1% Polysorbate 80, and 0.1% Parabens in water). In the combination therapy study, the five mice of the group Compound 2 were administered at 12 mg/kg orally once daily (QD). The group Combo received 100 mg/kg of Compound 1 QOD plus 12 mg/kg Compound 2 QD. The vehicle group was treated with an equivalent volume of oral-QD vehicle placebo (2% Klucel LF, 0.1% Polysorbate 80, and 0.1% Parabens in water).
In another independent study, more combinations of a TLR7 agonist plus a Capsid inhibitor and corresponding single compound treatments were tested (summarized in Table 2) using the same AAV-HBV mouse model and method of measurement of HBV biomarkers described in Example 5.
In this study, eight mice were recruited in each group, and animals received the first dose on day 28 post AAV-HBV infection. The tested combinations included Compound 1 plus Compound 4, Compound 3 plus Compound 4, and Compound 1 plus Compound 5.

human TLR7 = molecular target: T1, human TLR7 (Homo sapiens, UniProt Q9NYK1); assay: HEK293-Blue-hTLR-7 cells assay (NF-κB/AP-1 SEAP reporter); type: cell-based; conditions: 20 hours incubation, read-out: TLR7 agonism activity in HEK293-hTLR-7 assay
T1 sequence (Q9NYK1 27-1049): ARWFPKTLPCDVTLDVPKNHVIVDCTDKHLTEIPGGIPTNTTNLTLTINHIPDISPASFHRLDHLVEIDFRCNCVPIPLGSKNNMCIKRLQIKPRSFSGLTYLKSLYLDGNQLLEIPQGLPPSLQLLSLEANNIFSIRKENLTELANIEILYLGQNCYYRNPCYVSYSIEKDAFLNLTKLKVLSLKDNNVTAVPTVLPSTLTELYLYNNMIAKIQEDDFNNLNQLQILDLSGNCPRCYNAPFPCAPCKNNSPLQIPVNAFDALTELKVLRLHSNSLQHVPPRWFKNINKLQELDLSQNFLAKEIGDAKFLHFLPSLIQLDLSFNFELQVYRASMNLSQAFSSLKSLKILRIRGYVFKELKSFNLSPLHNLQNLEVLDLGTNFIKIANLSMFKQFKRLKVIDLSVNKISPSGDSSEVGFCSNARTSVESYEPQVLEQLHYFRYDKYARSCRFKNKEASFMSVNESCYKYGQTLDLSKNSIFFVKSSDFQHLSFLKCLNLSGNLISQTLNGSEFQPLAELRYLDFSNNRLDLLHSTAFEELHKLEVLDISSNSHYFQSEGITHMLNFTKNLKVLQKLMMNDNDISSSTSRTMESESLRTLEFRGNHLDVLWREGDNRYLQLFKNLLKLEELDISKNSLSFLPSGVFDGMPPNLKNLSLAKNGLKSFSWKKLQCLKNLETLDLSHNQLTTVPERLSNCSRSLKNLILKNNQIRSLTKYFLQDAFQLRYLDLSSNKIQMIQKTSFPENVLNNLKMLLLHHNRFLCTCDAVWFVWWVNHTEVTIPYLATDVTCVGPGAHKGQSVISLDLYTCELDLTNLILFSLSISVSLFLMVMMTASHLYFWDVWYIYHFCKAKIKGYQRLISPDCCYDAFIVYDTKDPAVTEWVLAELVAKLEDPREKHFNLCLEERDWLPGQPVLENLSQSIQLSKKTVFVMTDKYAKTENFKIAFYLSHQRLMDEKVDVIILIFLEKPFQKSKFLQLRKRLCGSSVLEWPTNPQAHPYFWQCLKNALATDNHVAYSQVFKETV
Text: HEK293-Blue-hTLR-7 Cells Assay:
A stable HEK293-Blue-hTLR-7 cell line was purchased from InvivoGen (Cat.#: hkb-htlr7, San Diego, Calif., USA). These cells were designed for studying the stimulation of human TLR7 by monitoring the activation of NF-κB. A SEAP (secreted embryonic alkaline phosphatase) reporter gene was placed under the control of the IFN-β[…] minimal promoter fused to five NF-κB and AP-1-binding sites. The SEAP was induced by activating NF-κB and AP-1 via stimulating HEK-Blue hTLR7 cells with TLR7 ligands. Therefore the reporter expression was regulated by the NF-κB promoter upon stimulation of human TLR7 for 20 hours. The cell culture supernatant SEAP reporter activity was determined using QUANTI-Blue™ kit (Cat.#: rep-qb1, Invivogen, San Diego, Ca, USA) at a wavelength of 640 nm, a detection medium that turns purple or blue in the presence of alkaline phosphatase.
HEK293-Blue-hTLR7 cells were incubated at a density of 250,000˜450,000 cells/mL in a volume of 180 μL in a 96-well plate in Dulbecco's Modified Eagle's medium (DMEM) containing 4.5 g/L glucose, 50 U/mL penicillin, […], […], 2 mM L-glutamine, 10% (v/v) heat-inactivated fetal bovine serum for 24 h. […]

HBV = HBV infected transgenic mouse or humanized mouse models; cited from earlier work
[1] = Example 6, FIG. 1, serum, after a 6-week treatment, oral, Compound 1 100 mg/kg QOD
[2] = Example 6, FIG. 1, serum, after a 6-week treatment, Compound 2 12 mg/kg QD oral
[3] = Compound 4 20 mg/kg QD, Compound 3 30 mg/kg QOD
[4] = Example 8, FIG. 8, serum, end of the 6-week treatment, Compound 8 300 mg/kg QOD PO

CCOC(=O)C1=C(CN2CCN3C(=O)N(CC(C)(C)C(=O)O)C[C@@H]3C2)NC(c2nccs2)=N[C@H]1c1cccc(F)c1Cl [Compound 2, 3-[(8aS)-7-[[(4R)-4-(2-chloro-3-fluoro-phenyl)-5-ethoxycarbonyl-2-thiazol-2-yl-1,4-dihydropyrimidin-6-yl]methyl]-3-oxo-5,6,8,8a-tetrahydro-1H-imidazo[1,5-a]pyrazin-2-yl]-2,2-dimethyl-propanoic acid]
reduction in HBV DNA (HBV (AAV-HBV); [1]): more than 3 log
HBV DNA level (HBV (AAV-HBV); [2]): below the LLQ
HBsAg level (effect in words) (HBV (AAV-HBV); [2]): moderately reduced

CC[C@H](O)[C@@H]1C[C@@H](O)[C@H](n2c(=O)sc3c(=O)[nH]c(N)nc32)O1 [compound 11]
EC50 (human TLR7): 72 µM

CC[C@H](OC(C)=O)[C@@H]1C[C@@H](O)[C@H](n2c(=O)sc3cnc(N)nc32)O1 [Compound 1, [(1S)-1-[(2S,4R,5R)-5-(5-amino-2-oxo-thiazolo[4,5-d]pyrimidin-3-yl)-4-hydroxy-tetrahydrofuran-2-yl]propyl] acetate]
reduction in HBsAg (HBV (AAV-HBV); [1]): more than 1 log
reduction in HBV DNA (HBV (AAV-HBV); [1]): more than 2 log

CC(=O)O[C@@H](C1CC1)[C@H]1O[C@@H](n2c(=O)sc3cnc(N)nc32)CS1 [Compound 3, [(S)-[(2S,5R)-5-(5-amino-2-oxo-thiazolo[4,5-d]pyrimidin-3-yl)-1,3-oxathiolan-2-yl]-cyclopropyl-methyl] acetate]
effect on HBV DNA (HBV (AAV-HBV); [3]): reduced
effect on HBsAg (HBV (AAV-HBV); Compound 3 30 mg/kg QOD): reduced

COC(=O)C1=C(C)NC(c2ncc(F)cc2F)=N[C@H]1c1ccc(F)cc1Cl [Bay 41-4109]
in vivo efficacy (HBV DNA) (HBV): in vivo efficacy with HBV DNA reduction

CC(=O)O[C@@H]1C[C@@H](CO)O[C@H]1n1c(=O)sc2cnc(N)nc21 [Compound 8, 5-amino-3-(2′-O-acetyl-3′-deoxy-β-D-ribofuranosyl)-3H-thiazolo[4,5-d]pyrimidin-2-one]
HBV DNA reduction (HBV (AAV-HBV); [4]): about 2 log
HBsAg reduction (HBV (AAV-HBV); [4]): ~1.5 log

CCOC(=O)C1=C(CN2CCN3C(=O)N(CC(C)(C)C(=O)O)C[C@@H]3C2)NC(c2nccs2)=N[C@H]1c1cccc(F)c1C [Compound 4, 3-[(8aS)-7-[[(4S)-5-ethoxycarbonyl-4-(3-fluoro-2-methyl-phenyl)-2-thiazol-2-yl-1,4-dihydropyrimidin-6-yl]methyl]-3-oxo-5,6,8,8a-tetrahydro-1H-imidazo[1,5-a]pyrazin-2-yl]-2,2-dimethyl-propanoic acid]
effect on HBV DNA (HBV (AAV-HBV); [3]): inhibited
HBsAg reduction (HBV (AAV-HBV); Example 7, FIG. 4 and 5, serum, end of 6-week treatment, PO, Compound 1 100 mg/kg QOD, Compound 3 30 mg/kg QOD, Compound 4 20 mg/kg QD): 2 log

COC(=O)C1=C(CN2[C@@H]3C[C@H](CC(=O)O)C[C@H]2C(F)(F)C3)NC(c2nccs2)=N[C@H]1c1cccc(F)c1Cl [Compound 5, 2-[(1R,3S,5S)-8-[[(4R)-4-(2-chloro-3-fluoro-phenyl)-5-methoxycarbonyl-2-thiazol-2-yl-1,4-dihydropyrimidin-6-yl]methyl]-6,6-difluoro-8-azabicyclo[3.2.1]octan-3-yl]acetic acid]
effect on HBV DNA (HBV (AAV-HBV); [3]): reduced
effect on HBsAg (HBV (AAV-HBV); Compound 3 30 mg/kg QOD): reduced
